Experimental data reported in the supplement of paper PMC4862054.

How the values were obtained:
BT-474 = conditions: 72 h
How it was run: (§1)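 For viability and cell death testing, 384-well plates carried compound at 5 concentrations in 10-fold steps over a compound-specific 10,000-fold range, and breast cancer cell lines were seeded in 20 µl suspension. After 72 h incubation, cell death was read by CellTox Green fluorescence (485/520 nm) before viability was read by CellTiter-Glo luminescence. EC50 was fitted from the dose-response curves and censored at the top concentration. Normalisation on each plate was to 0.1 % DMSO and a positive kill control.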

BT-549 = conditions: 72 h
How it was run: as §1

CAL-51 [1] = conditions: 72 h
How it was run: as §1

CAL-85-1 [2] = conditions: 72 h
How it was run: as §1

HCC1937 = conditions: 72 h
How it was run: as §1

MDA-MB-231 = conditions: 72 h
How it was run: as §1

MDA-MB-453 [3] = conditions: 72 h
How it was run: as §1

MDA-MB-468 = conditions: 72 h
How it was run: as §1

SK-BR-3 = conditions: 72 h
How it was run: as §1

CAL-148 [4] = conditions: 72 h
How it was run: (§2)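 Rows with a drug sensitivity score of zero were dropped, and EC50 was taken from the fitted percent-inhibition dose-response curve, censored at the highest concentration. Data were normalised on each plate to vehicle and a positive kill control and checked by Z'-factor. The assay seeded breast cancer cell lines in 20 µl onto 384-well plates pre-loaded with compound in 5 µl medium for 72 h, then added 2.5 µl CellTiter-Blue for 2 h at 37 °C and read fluorescence at 560/590 nm.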

CAL-51 [5] = conditions: 72 h; remark: listed apart in the source
How it was run: as §2

CAL-85-1 [6] = conditions: 72 h; remark: listed apart in the source
How it was run: as §2

DU-4475 [7] = conditions: 72 h
How it was run: as §2

HDQ-P1 [8] = conditions: 72 h
How it was run: as §2

MDA-MB-453 [9] = conditions: 72 h; remark: listed apart in the source
How it was run: as §2

CAL-51 [10] = conditions: 72 h; remark: listed apart in the source
Experimental: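 Drug sensitivity and resistance testing (DSRT) of breast cancer cell lines in 384-well plates, 5 concentrations in 10-fold dilutions over a compound-specific 10,000-fold range. After 72 h, cytotoxicity was read by CellTox Green fluorescence and viability by CellTiter-Glo luminescence (multiplexed), normalised to DMSO and benzethonium chloride controls. EC50 is the inflection point of the fitted dose-response curve (bottom asymptote free, so it can be relative for partial curves) and is censored at the highest tested concentration. Rows with DSS 0 (no meaningful response) were excluded.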

CAL-85-1 [11] = test: drug sensitivity score (DSS), CellTiter-Glo (DSS (AUC-based score)); higher = stronger drug effect (viability inhibition or cytotoxicity); extreme values may be limits of the assay; conditions: incubation time: 72 h
How it was run: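 Breast cancer cell lines, seeded as 20 µl suspension, were incubated 72 h with compound in 384-well plates at 5 concentrations in 10-fold steps over a 10,000-fold range set for each compound. Fluorescence from CellTox Green was read at 485/520 nm before CellTiter-Glo luminescence, which was read after 10 min at room temperature. Every plate was normalised to 0.1 % DMSO and a positive kill control, and the drug sensitivity score was taken from the area under the fitted dose-response curve.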

CAL-120 = conditions: 72 h
How it was run: as §1

CAL-148 [12] = conditions: 72 h; remark: listed apart in the source
How it was run: as §1

DU-4475 [13] = conditions: 72 h; remark: listed apart in the source
How it was run: as §1

HCC1143 = conditions: 72 h
How it was run: as §1

HCC1599 = conditions: 72 h
How it was run: as §1

HDQ-P1 [14] = conditions: 72 h; remark: listed apart in the source
How it was run: as §1

Hs578T = conditions: 72 h
How it was run: as §1

MCF-10A = conditions: 72 h
How it was run: as §1

MDA-MB-436 = conditions: 72 h
How it was run: as §1

MFM-223 = conditions: 72 h
How it was run: as §1

CAL-148 [15] = test: normalised viability (% of control), CellTiter-Blue; higher = more viable cells (about 100 = DMSO control); conditions: incubation time: 72 h
How it was run: (§3)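 Each entry is normalised viability at a single listed concentration within a series. It comes from breast cancer cell lines incubated 72 h with compound in 384-well plates, then measured with CellTiter-Blue fluorescence at 560/590 nm. Every plate was normalised between vehicle (100) and a positive kill control (0).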

CAL-51 [16] = test: as above; conditions: incubation time: 72 h
How it was run: as §3

CAL-85-1 [17] = test: as above; conditions: incubation time: 72 h
How it was run: as §3

DU-4475 [18] = test: as above; conditions: incubation time: 72 h
How it was run: as §3

HDQ-P1 [19] = test: as above; conditions: incubation time: 72 h
How it was run: as §3

MDA-MB-453 [20] = test: as above; conditions: incubation time: 72 h
How it was run: as §3

EC50, CellTiter-Glo (BT-474) [nM] | EC50, CellTiter-Glo (BT-549) [nM] | EC50, CellTiter-Glo (MDA-MB-231) [nM] | EC50, CellTiter-Glo (MDA-MB-468) [nM] | EC50, CellTiter-Blue viability (MDA-MB-453 [9]) [nM] | SMILES | EC50, CellTiter-Glo (CAL-51 [1]) [nM] | EC50, CellTiter-Glo (CAL-85-1 [2]) [nM] | drug sensitivity score (CAL-85-1 [11]) | EC50, CellTiter-Glo (CAL-120) [nM] | EC50, CellTiter-Glo (MFM-223) [nM] | normalised viability (CAL-148 [15]) [%] | normalised viability (CAL-51 [16]) [%] | normalised viability (CAL-85-1 [17]) [%] | normalised viability (DU-4475 [18]) [%] | normalised viability (HDQ-P1 [19]) [%] | normalised viability (MDA-MB-453 [20]) [%] | also measured
128 | 3600 | 131 | 664 | 632 | COC1=CC(c2cc3ccccc3[nH]2)=N/C1=C\c1[nH]c(C)cc1C [Obatoclax] | 3920 | 126 | 4.01 |  |  |  |  |  |  |  |  | EC50, CellTiter-Glo (HCC1937): 153 nM; EC50, CellTiter-Glo (MDA-MB-453 [3]): 2620 nM; EC50, CellTiter-Glo (SK-BR-3): > 10000 nM; EC50, CellTiter-Blue viability (CAL-148 [4]): 3150 nM; EC50, CellTiter-Blue viability (CAL-51 [5]): 2060 nM; EC50, CellTiter-Blue viability (CAL-85-1 [6]): 982 nM; EC50, CellTiter-Blue viability (DU-4475 [7]): 6650 nM; EC50, CellTiter-Blue viability (HDQ-P1 [8]): 95.6 nM; EC50, CellTox Green (CAL-51 [10]): 2640 nM
299 | 50.3 | 138 | 45.5 | 24.7 | COC(=O)C[C@](O)(CCCC(C)(C)O)C(=O)O[C@@H]1C(OC)=C[C@]23CCCN2CCc2cc4c(cc2[C@H]13)OCO4 [Omacetaxine] | 37.5 | 36.2 | 29.6 | 93.8 | 102 |  |  |  |  |  |  | EC50, CellTiter-Glo (CAL-148 [12]): 56.8 nM; EC50, CellTiter-Glo (DU-4475 [13]): 14.4 nM; EC50, CellTiter-Glo (HCC1143): 80.6 nM; EC50, CellTiter-Glo (HCC1599): 41.1 nM; EC50, CellTiter-Glo (HCC1937): 64.3 nM; EC50, CellTiter-Glo (HDQ-P1 [14]): 39.1 nM; EC50, CellTiter-Glo (Hs578T): 68.3 nM; EC50, CellTiter-Glo (MCF-10A): 116 nM; EC50, CellTiter-Glo (MDA-MB-436): 22.6 nM; EC50, CellTiter-Glo (MDA-MB-453 [3]): 73.9 nM; EC50, CellTiter-Glo (SK-BR-3): 86.7 nM; EC50, CellTiter-Blue viability (CAL-148 [4]): 13.7 nM; EC50, CellTiter-Blue viability (CAL-51 [5]): 21.5 nM; EC50, CellTiter-Blue viability (CAL-85-1 [6]): 17.4 nM; EC50, CellTiter-Blue viability (DU-4475 [7]): 5.48 nM; EC50, CellTiter-Blue viability (HDQ-P1 [8]): 13.8 nM
 |  |  |  |  | CC(C)(C)c1cc(NC(=O)Nc2ccc(-c3cn4c(n3)sc3cc(OCCN5CCOCC5)ccc34)cc2)no1 [Quizartinib] (1000 nM) |  |  |  |  |  | 91.3 | 103 | 89.6 | 112 | 111 | 60.2 | 
8260 |  |  | 4640 | 9230 | O=C(c1ccc(OCCN2CCCCC2)cc1)c1c(-c2ccc(O)cc2)sc2cc(O)ccc12 [Raloxifene] |  | 3610 | 1.62 |  | 2260 |  |  |  |  |  |  | EC50, CellTiter-Glo (HCC1599): 9620 nM
 |  |  |  |  | O=C(c1ccc(OCCN2CCCCC2)cc1)c1c(-c2ccc(O)cc2)sc2cc(O)ccc12 [Raloxifene] (10000 nM) |  |  |  |  |  | 125 | 105 | 98.6 | 113 | 105 | 45.7 | 
33.5 |  | 130 | 29.8 | 249 | Cn1c(=O)c(F)c(Nc2ccc(I)cc2F)c2c(=O)n(C[C@@H](O)CO)cnc21 [TAK-733] | 3.04 | 125 | 6.4 | 66.6 | 371 |  |  |  |  |  |  | EC50, CellTiter-Glo (DU-4475 [13]): 7.03 nM; EC50, CellTiter-Glo (HCC1937): 341 nM; EC50, CellTiter-Glo (HDQ-P1 [14]): 6.97 nM; EC50, CellTiter-Glo (MCF-10A): 3.49 nM; EC50, CellTiter-Glo (MDA-MB-436): 452 nM; EC50, CellTiter-Blue viability (CAL-51 [5]): 102 nM; EC50, CellTiter-Blue viability (CAL-85-1 [6]): 68.5 nM; EC50, CellTiter-Blue viability (DU-4475 [7]): 3.59 nM; EC50, CellTiter-Blue viability (HDQ-P1 [8]): 161 nM
 |  |  |  |  | Cn1c(=O)c(F)c(Nc2ccc(I)cc2F)c2c(=O)n(C[C@@H](O)CO)cnc21 [TAK-733] (1000 nM) |  |  |  |  |  | 92.8 | 66 | 39.7 | 0.83 | 60 | 51.2 | 
152 | 155 | 144 | 26.2 | 12.8 | CCS(=O)(=O)c1cccc(-c2cc(C(=O)NC3CCN(C)CC3)c(C)c3[nH]c4ncc(C)cc4c23)c1 [TAK-901] |  |  | 0 | 131 | 123 |  |  |  |  |  |  | EC50, CellTiter-Glo (HCC1143): 130 nM; EC50, CellTiter-Glo (HDQ-P1 [14]): 642 nM; EC50, CellTiter-Glo (Hs578T): 445 nM; EC50, CellTiter-Glo (MCF-10A): 151 nM; EC50, CellTiter-Glo (MDA-MB-436): 299 nM; EC50, CellTiter-Blue viability (CAL-51 [5]): 179 nM; EC50, CellTiter-Blue viability (CAL-85-1 [6]): 344 nM; EC50, CellTiter-Blue viability (DU-4475 [7]): 806 nM; EC50, CellTiter-Blue viability (HDQ-P1 [8]): 260 nM
 |  |  |  |  | CCS(=O)(=O)c1cccc(-c2cc(C(=O)NC3CCN(C)CC3)c(C)c3[nH]c4ncc(C)cc4c23)c1 [TAK-901] (1000 nM) |  |  |  |  |  | 105 | 23.8 | 30.9 | 41.2 | 16.6 | 40.2 | 
709 | 947 |  | 3560 |  | Cc1cc(C(C)Nc2ccccc2)c2nc(N3CCOCC3)cc(=O)n2c1 (stereo not drawn) [TGX-221] | 22.8 |  | 0 | > 10000 |  |  |  |  |  |  |  | 
 | 650 |  |  |  | COc1cc(Nc2ncc(F)c(Nc3ccc4c(n3)NC(=O)C(C)(C)O4)n2)cc(OC)c1OC [Tamatinib] | 2310 |  | 0 |  |  |  |  |  |  |  |  | 
 |  |  |  |  | C[C@@H]1CCN(C(=O)CC#N)C[C@@H]1N(C)c1ncnc2[nH]ccc12 [Tofacitinib] | 52.1 |  | 0 |  |  |  |  |  |  |  |  | 
 |  |  |  |  | CCCC(CCC)C(=O)O [Valproic acid] | 441000 |  | 0 |  |  |  |  |  |  |  |  | 
 |  |  |  |  | CCCC(CCC)C(=O)O [Valproic acid] (10000 nM) |  |  |  |  |  | 91.5 | 91.4 | 86.8 | 82.9 | 125 | 106 | 
3040 | 396 | 720 | 677 |  | FC(F)c1nc2ccccc2n1-c1nc(N2CCOCC2)nc(N2CCOCC2)n1 [ZSTK474] | 1010 | 779 | 10.4 | 958 | 737 |  |  |  |  |  |  | EC50, CellTiter-Glo (CAL-148 [12]): 1260 nM; EC50, CellTiter-Glo (DU-4475 [13]): 6590 nM; EC50, CellTiter-Glo (HCC1143): 1130 nM; EC50, CellTiter-Glo (HCC1599): 538 nM; EC50, CellTiter-Glo (HCC1937): 2730 nM; EC50, CellTiter-Glo (HDQ-P1 [14]): 436 nM; EC50, CellTiter-Glo (Hs578T): 493 nM; EC50, CellTiter-Glo (MCF-10A): 540 nM; EC50, CellTiter-Glo (MDA-MB-436): 498 nM; EC50, CellTiter-Glo (MDA-MB-453 [3]): 492 nM; EC50, CellTiter-Glo (SK-BR-3): 206 nM
